Two molecules from patent US20250122581A1, “TUMOR AND METASTASIZING MARKER” (UNIVERSITAET ZU KOELN, priority 2017, published 2025) can be followed below.

One assay deals with Vimentin 3. Nature of the assay: Cell culture experiments after ET-1 treatment, Western blot. Format: cell-based. To be noted: cell culture (DU145). As to the method: Furthermore, cell culture experiments were conducted after ET-1 treatment over different time points and analyzed via Western blot the expression of the different proteins mentioned above. For the ET-1 ELISA and Vim3 ELISA 100 μl of serum was used. DU145 cells were cultured under normal conditions and treated with the substances mentioned. Cells were scratched before treatment. The ET-receptors were blocked 1 h before ET-1 stimulation. Immunofluorescence was performed on paraffin-embedded prostate cancer samples. This immunofluorescence has been carried out as described in Example 1 above. In addition to Vim3-specific antibodies, also Atg7- and pg3-specific primary antibodies have been used.
For orientation: Immunoblotting shows a protein as a band on a membrane.

For assay [1], the system named is Vim3. As to the kind of experiment: Immunohistochemistry of Vim3 in breast cancer specimens and metastases after tamoxifen treatment. It is filed as in vivo, human. Here is the method: (§1) The dependency of the overexpression of Vim3 due to ET-1 presence and after tamoxifen treatment was shown in cell culture experiments and analyzed via Western blot. The expression of Vim3and ET-1 was analyzed in paraffin-embedded tissue samples of patients with metastatic breast cancers after tamoxifen treatment. MCF-7 cells were cultured under normal conditions and treated with the mentioned substances. Tamoxifen treatment was performed 1 hour prior ET-1 or β-estradiol treatment. Nuclear extracts were isolated and analyzed via Western blot under standard conditions. A Proximity Ligation Assay (PLA) assay was performed according to the manufacturer's protocol. From cells after treatment, the mRNA was isolated and qRT-PCR was performed. Immunohistochemistry was performed according to standardized conditions.
Vim3 Expression in Invasive Ductal Breast Carcinoma, and Its Metastases From the pre-evaluation of breast cancer specimen via tissue-microarray it was known that ET-1 and Vim3 staining could be detected in tumor cells, while vimentin full length was only positive in the interstitial tissue. To analyze the expression of the newly described target gene Vim3 in more detail, its expression was investigated in […] biopsies and their respective resection specimens of breast cancer cases. […] In each biopsy, Vim3 was detected, either in nuclear (20/25; strong expression: 3+) and/or diffuse cytoplasmic (25/25) localization. After Tam treatment, seventeen respective resection specimens were still diffusely positive for Vim3, now mainly in a cytoplasmic localization (12/17), with nuclear localization additionally found in 5 specimens (5/17). In 4 cases, lymph node but no other metastases were reported (4/28). In contrast, 7 cases developed organ metastases (7/28), of which 3 had additional lymph node metastases.
The expression of Vim3 and ERB was investigated in resection specimens and their metastases. In a set of 8 cases positive for ERa after tam pretreatment, it was found again a diffuse cytoplasmic expression of Vim3. In addition, in […] metastases (pleura 2×, skin 2×, bone 3×, uterus 1×, liver 1×, soft tissue 1x) Vim3 was also expressed (cytoplasm: 12/12; additional nuclear expression 5/12). In 7 of the 12 metastases, a 3+ nuclear expression for ERB was found, which was in all investigated cases accompanied by Vim3 expression.

In assay [2] the test system is Vim3. As to the kind of experiment: Western blot with densitometry of Vim3 in total cell extract of stimulated MCF-7. To be noted: combined Tam plus ET-1 pretreatment versus ET-1 alone, p<0.001. Format: cell-based. As to the method:
WB with 20 μg non-precipitated total cell extract of stimulated MCF-7. The corresponding densitometric analysis of the present bands of a protein analysis on the WB membrane where the intense band of Vim3 (47 kDa) is striking as compared to the very faint band of GAPDH in the same sample is shown with ImageJ, where the background and the control had been subtracted.
Furthermore, the effect of Tam was studied with regard to its translational capacity for Vim3 after a combined Tam plus ET-1 pretreatment versus ET-1 alone. […] Tam upregulates Vim3.

For another assay, the system named is ET-1. Nature of the assay: Western blot of nuclear extracts of treated MCF-7 breast cancer cells. Format: cell-based. To be noted: nuclear extracts from breast cancer cells after Tamoxifen treatment. Here is the method:
as §1

For assay [3], the system named is Vim3. As to the kind of experiment: Vim3 expression analysis by qRT-PCR in treated MCF-7 cells. Format: cell-based. To be noted: combined pretreatment with tamoxifen and β-estradiol/ET-1, p<0.01.
Description: FIG. 25A-FIG. 25C show Vim3 expression analysis of treated MX-1 (FIG. 25A; FIG. 25B) and MCF-7 (FIG. 25C) cells by qRT-PCR analysis. […] In both diagrams the increase in Vim3 expression up to ca 700 RFU upon a combinational stimulation with Tam is decisive. Data shown is derived from quadruplicates from an independent experiment. *P<0.05, **P<0.01 and ***P<0.001.
as §1

For assay [4], the system named is Vim3. As to the kind of experiment: Vim3 expression analysis by qRT-PCR in treated MX-1 cells. Format: cell-based. To be noted: combinational stimulation with Tam.
Description: MCF-7 cells were cultured under normal conditions and treated with the mentioned substances. Tamoxifen treatment was performed 1 hour prior ET-1 or β-estradiol treatment. […] From cells after treatment, the mRNA was isolated and qRT-PCR was performed.
[5] abbreviates: breast cancer resection specimens, positive/total.

As for `CC[C@H](C)[C@H](NC(=O)[C@H](CC(=O)O)NC(=O)[C@H](CC(C)C)NC(=O)[C@H](Cc1c[nH]cn1)NC(=O)[C@@H]1CSSC[C@H](N)C(=O)N[C@@H](CO)C(=O)N[C@H]2CSSC[C@H](NC(=O)[C@H](CCC(=O)O)NC(=O)[C@H](CCCCN)NC(=O)[C@H](CC(=O)O)NC(=O)[C@H](CCSC)NC(=O)[C@H](CC(C)C)NC(=O)[C@H](CO)NC(=O)[C@H](CO)NC2=O)C(=O)N[C@@H](C(C)C)C(=O)N[C@@H](Cc2ccc(O)cc2)C(=O)N[C@@H](Cc2ccccc2)C(=O)N1)C(=O)N[C@H](C(=O)N[C@@H](Cc1c[nH]c2ccccc12)C(=O)O)[C@@H](C)CC` [ET-1, Endothelin-1], the “Vimentin 3 production after ET-1 treatment” value in the assay on Vimentin 3 was “produce more Vimentin 3”.

As to `CC/C(=C(\c1ccccc1)c1ccc(OCCN(C)C)cc1)c1ccccc1` [tamoxifen], the “mastectomies with cytoplasmic Vim3 staining after Tam” value in the assay with Vim3 [1] (biopsies before Tam: nuclear positivity 19/21) is reported as 13/17. For the same molecule, in the assay with Vim3 [1] (setting [5]), the “resection specimens with additional nuclear Vim3 localization after Tam treatment” value is 5/17 and the “resection specimens with cytoplasmic Vim3 localization after Tam treatment” value is recorded as 12/17. In addition, the “Vim3 level in tamoxifen-treated tumors and metastases” value in the assay on Vim3 [1] (patients with metastatic breast cancers after tamoxifen treatment) is “an increase of Vim3 was found in both, the tumor as well as the metastases”. The “formation of Vim3 protein (Western blot densitometry)” value in the assay with Vim3 [2] was “highly statistically significant induced formation of Vim3”. In addition, the “ET-1 signal in the nuclear fraction” value in the assay on ET-1 is on record as “ET-1 expression is triggered”. Also, the “ET-1 signal in the nuclear fraction” value in the assay with ET-1 (listed as Tamoxifen) was “significant upregulation of the ET-1 signal in the nuclear fraction”. Moreover, in the assay on Vim3 [3], the “mRNA Vim3 expression” value is reported as “clear increase in mRNA Vim3 expression”. Further, the “Vim3 expression (qRT-PCR)” value in the assay with Vim3 [4] is roughly 700 RFU.
